Patent publication US6482934B1, “Methods and compositions for detecting and treating kidney diseases associated with adhesion of crystals to kidney cells” (ARCH Development Corp., priority 1995, dated 2002)
pIC50, pKd: −log10 of the molar value. “Also recorded” adds a separate entry of the source. Counter-ions that a name gives are not always drawn. Like-named read-outs stand apart in the source and are kept apart here.

Columns and labels:
BSC-1 cells [1] = assay: [14C]COM crystal adhesion to BSC-1 cell monolayers; type: cell-based, African green monkey; details: for pIC50 / Half-maximal concentration: concentration that inhibited crystal adhesion by 50%; for pIC50 / pKd / Half-maximal concentration / Langmuir affinity constant (dissociation constant): N.I. = noninhibitory; for pIC50: read-out: Half-maximal concentration; for pKd / Langmuir affinity constant (dissociation constant): slope of Langmuir isotherm plot of crystal adhesion; for pKd: read-out: Langmuir affinity constant (dissociation constant); for effect on adhesion of COM crystals: concentrations as high as 1 μM
Protocol: (§1) Renal epithelial cells of the nontransformed African green monkey line (BSC-1) were used. Cells were grown in Dulbecco-Vogt modified Eagle's medium containing 25 mM glucose (DMEM), 1.6 μM biotin and 1% calf serum at 38° C. in a CO2 incubator. Under these conditions, BSC-1 cells achieved confluence at 10^6 cells per 60-mm plastic dish (Nunc). High-density, quiescent cultures were prepared by plating 2×10^6 cells in a 60-mm dish. The spent medium was changed after 3 days so that there were 3-4×10^6 cells/dish 6 days later. Medium was then aspirated and replaced with fresh medium containing […] and 0.01% calf serum; 3 days later the quiescent cultures were used for study.
(§2) Crystals are sterilized by heating to 180° C. overnight.
(§3) High-density, quiescent cultures of BSC-1 cells, MDCK cells, or Balb/c3T3 fibroblasts are prepared. At the time of assay, the medium is aspirated and replaced with 5 ml of phosphate-buffered saline (PBS) (10 mM Na2PO4, 155 mM NaCl, 5.4 mM KCl, pH 7.4 at 37° C.) to which the compound under investigation is added. […] The culture dishes are gently agitated for 5 seconds to uniformly distribute crystals which subsequently settle to the surface of the cell monolayer under the force of gravity. After two minutes buffer is aspirated and the cells are then washed three times with PBS (5 ml). The cell monolayer is then scraped directly into a scintillation vial containing 6 N HCl (0.5 ml) to which 4.5 ml of Ecoscint (National Diagnostics, E. Palmetto, Fla.) is added, and the amount of radioactivity is measured as described by Riese, et al. (1992).

BSC-1 cells [2] = assay: Crystal endocytosis by BSC-1 cells; type: cell-based, African green monkey; details: for combined stimulatory effects on COM crystal endocytosis: ADP 200 μM and EGF 5 ng/ml; for combined inhibitory effects on COM crystal endocytosis: RGDS 10 μg/ml, heparin 5 μg/ml and TGF-β2 2 ng/ml
Protocol: as §1
(§4) At specified times after addition of crystals to high-density, quiescent cultures the medium was aspirated and a solution of crystalline trypsin was used to detach cells which were then inspected under a polarizing microscope. One hundred cells from each culture were counted, and each cell was scored for the presence of one or more internalized crystal(s).

BSC-1 cells [3] = assay: Adhesion of agent-coated COM crystals to BSC-1 cells; type: cell-based, African green monkey; details: compared with uncoated control crystals
Protocol: Each tube is then centrifuged at 3000 g for 5 minutes. The supernatant is gently aspirated and replaced with a supersaturated calcium oxalate solution to resuspend the coated crystals. To assure removal of any nonabsorbed compound, crystals are resuspended and washed three times in succession. Cell-associated radioactivity is determined 2 minutes after addition of these coated crystals as described herein.

MDCK cells [4] = assay: Crystal endocytosis by MDCK cells; type: cell-based, canine; details: COM crystals 200 μg/ml; for inhibition of COM crystal endocytosis by MDCK cells: 10 μg/ml
Protocol: (§5) Madin-Darby Canine Kidney (MDCK) cells were grown in DMEM containing 2% calf serum and 1.6 μM biotin as described previously. To prepare high-density, quiescent cultures 2×10^6 cells/60-mm dish were plated in DMEM containing 2% calf serum and 1.6 μM biotin. The next day medium was aspirated and replaced with fresh medium containing 0.5% calf serum and biotin. One day later the cultures were used for study.
as §4

Balb/c3T3 fibroblasts [5] = assay: Crystal endocytosis by Balb/c3T3 fibroblasts; type: cell-based; details: COM crystals 200 μg/ml; for effect on crystal uptake by fibroblasts: 10 μg/ml
Protocol: (§6) Balb/c3T3 fibroblasts were grown in DMEM containing 10% calf serum. To prepare high-density, quiescent cultures, 7×10^5 cells were plated per 60-mm dish. Two days later the medium was aspirated and replaced with fresh medium containing 1% calf serum and 1.6 μM biotin; the cells were used one day later when a density of […] was reached.
as §4

BSC-1 cells [6] = assay: Endocytosis of agent-coated COM crystals by BSC-1 cells; type: cell-based, African green monkey; details: THP 5×10^−8 M; 6×10^−10M in the medium
Excerpt: as §4

MDCK cells [7] = assay: [14C]COM crystal adhesion to MDCK cells; type: cell-based, canine; details: 0.55 μM heparin
Protocol: as §5, §2, §3

Balb/c3T3 fibroblasts [8] = assay: [14C]COM crystal adhesion to 3T3 fibroblasts; type: cell-based; details: 0.55 μM heparin; COM crystals 200 μg/ml
Protocol: as §6, §2, §3

pIC50 (BSC-1 cells [1])	Compound	effect on adhesion of COM crystals to BSC-1 cells (in words) (BSC-1 cells [1])	concentration above which COM crystal adhesion was inhibited (BSC-1 cells [1])	pKd (BSC-1 cells [1])	adhesion of crystals previously coated with the molecule (BSC-1 cells [3])	further results
	CC(=O)NC1C(O)OC(CO)C(O)C1OC1OC(C(=O)O)=CC(O)C1O (centres unmarked) [0-S]	without effect				
	CC(=O)NC1C(O)OC(CO)C(OS(=O)(=O)O)C1OC1OC(C(=O)O)=CC(O)C1O (centres unmarked) [4-S]	without effect				
	CC(=O)NC1C(O)OC(COS(=O)(=O)O)C(O)C1OC1OC(C(=O)O)=CC(O)C1O (centres unmarked) [6-S]	without effect				
	Nc1ncnc2c1ncn2[C@@H]1O[C@H](COP(=O)(O)OP(=O)(O)O)[C@@H](O)[C@H]1O [ADP, adenosine diphosphate]					increase in COM crystal uptake compared to control (BSC-1 cells [2]; ADP 2 μM): 52%; combined stimulatory effects on COM crystal endocytosis (BSC-1 cells [2]): not additive
	O=C(O)CC(O)(CC(=O)O)C(=O)O [Sodium citrate]	inhibited binding of COM crystals	above 250 μM	3.37		pIC50 (BSC-1 cells [1]; Chlorocebus sabaeus, BSC-1): 3.70
6.22	Chondroitin sulfate A	prevented binding of COM crystals	above 1.4 μM	7.42		
7.00	Chondroitin sulfate B	prevented binding of COM crystals	> 0.4 µM	6.69	less than control	
	Chondroitin sulfate C					Half-maximal concentration (BSC-1 cells [1]): N.I.; effect on COM crystal adherence (BSC-1 cells [1]; concentrations as high as 37 μM): no effect; Langmuir affinity constant (dissociation constant) (BSC-1 cells [1]): N.I.
8.00	Dextran sulfate		> 0.01 µM	7.89	less than control	
	EGF: epidermal growth factor, mitogen					combined stimulatory effects on COM crystal endocytosis (BSC-1 cells [2]): not additive; increase in COM crystal endocytosis compared to control (BSC-1 cells [2]; EGF 10 ng/ml): 55%
	Fibronectin					maximal inhibition of COM crystal endocytosis (BSC-1 cells [2]; fibronectin 2.5 μg/ml): 33%; inhibition of COM crystal endocytosis by MDCK cells (MDCK cells [4]): 59%; effect on crystal uptake by fibroblasts (Balb/c3T3 fibroblasts [5]): did not alter crystal uptake by fibroblasts
7.00	Heparan sulfate	prevented binding of COM crystals	above 0.8 μM	6.06		effect on endocytosis of COM crystals (BSC-1 cells [2]; heparan sulfate 2-25 μg/ml): did not alter endocytosis of COM crystals
7.70	Hyaluronic acid	prevented binding of COM crystals	above 0.01 μM	7.89		
7.70	Pentosan polysulfate		above 0.33 μM	6.88		
	Polyarginine				to the same extent as did uncoated crystals	Half-maximal concentration (BSC-1 cells [1]): N.I.; effect on adhesion of COM crystals (BSC-1 cells [1]): no effect; Langmuir affinity constant (dissociation constant) (BSC-1 cells [1]): N.I.
8.15	Polyaspartic acid	blocked adherence of COM crystals	above 0.007 μM	7.64	less than control	
8.00	Polyglutamic acid	blocked adherence of COM crystals	> 0.02 µM	7.59	less than control	
7.70	Polyvinyl sulfate		> 0.1 µM	7.31		
	THP: urinary Tamm-Horsfall glycoprotein, most abundant protein in human urine	no effect				Half-maximal concentration (BSC-1 cells [1]): N.I.; effect on adhesion of COM crystals to BSC-1 cells (in words) (BSC-1 cells [1]; listed as Tamm-Horsfall glycoprotein): did not; Langmuir affinity constant (dissociation constant) (BSC-1 cells [1]): N.I.; decrease in COM crystal endocytosis (BSC-1 cells [2]; THP 5×10−8 M): 34%; decrease in COM crystal endocytosis (BSC-1 cells [2]; THP 10^−8 M): 21%; endocytosis of crystals incubated with THP and added directly without centrifuging (BSC-1 cells [6]): to the same extent as uncoated crystals
7.70	Uropontin: urinary glycoprotein, inhibitor of COM crystal growth	inhibited binding of COM crystals; also recorded: blocking adhesion of COM crystals to BSC-1 cells		7.37	less than control	block of COM crystal binding (BSC-1 cells [1]; uropontin 0.1 μM): 73%
	albumin				to the same extent as did uncoated crystals	
	arginine-glycine-aspartic acid-serine [RGDS]					inhibition of COM crystal endocytosis compared to control (BSC-1 cells [2]; RGDS 5 μg/ml): 30%; combined inhibitory effects on COM crystal endocytosis (BSC-1 cells [2]): not additive; maximal inhibition of COM crystal endocytosis (BSC-1 cells [2]; RGDS at higher concentrations (above 5 μg/ml)): 41%; inhibition of COM crystal endocytosis by MDCK cells (MDCK cells [4]): 48%; effect on crystal uptake by fibroblasts (Balb/c3T3 fibroblasts [5]): did not alter crystal uptake by fibroblasts
7.82	heparin	blocked		7.37	less than control	adhesion of crystals after heparin added later than crystals (BSC-1 cells [1]; heparin 10 μg/ml (0.55 μM) added 1 to 30 minutes after crystals, measured after 60 minutes): appeared to stop immediately; displacement of crystals already bound to cells (BSC-1 cells [1]; heparin 10 μg/ml present for up to an additional 55 minutes): did not appear to displace crystals already bound to cells; decrease in adherence of COM crystals (BSC-1 cells [1]; heparin 18,000 Da at 0.006 μM): 33%; Maximal inhibition of COM crystal adhesion (BSC-1 cells [1]; heparin 18,000 Da at concentrations above 0.028 μM): 95%; maximal inhibition of adhesion of COM crystals to MDCK cells (MDCK cells [7]): 89%; decrease in adhesion of COM crystals to 3T3 fibroblasts (Balb/c3T3 fibroblasts [8]): 85%; combined inhibitory effects on COM crystal endocytosis (BSC-1 cells [2]): not additive; decrease in COM crystal endocytosis compared to control (BSC-1 cells [2]; heparin 2 μg/ml): 36%; effect on COM crystal uptake at higher concentration (BSC-1 cells [2]; heparin as high as 100 μg/ml): did not inhibit uptake further; inhibition of COM crystal endocytosis in MDCK cells (MDCK cells [4]; heparin): 60%; inhibition of COM crystal endocytosis in fibroblasts (Balb/c3T3 fibroblasts [5]; heparin): 24%
	protamine sulfate					effect on heparin inhibition of crystal binding, added after heparin (BSC-1 cells [1]; after 30 minutes exposure to heparin): completely reversed inhibition of crystal binding; effect on heparin inhibition of crystal adhesion, added together with heparin (BSC-1 cells [1]; protamine sulfate 100 μg/ml with heparin 10 μg/ml): abolished the polyanion's inhibitory effect; effect on crystal adhesion, alone (BSC-1 cells [1]; protamine sulfate alone): inert

Compound	pIC50 (BSC-1 cells [1])	effect on adhesion of COM crystals to BSC-1 cells (in words) (BSC-1 cells [1])	concentration above which COM crystal adhesion was inhibited (BSC-1 cells [1])	pKd (BSC-1 cells [1])	adhesion of crystals previously coated with the molecule (BSC-1 cells [3])	further results
O=C(O)CC(CC(=O)O)(OP(=O)(O)O)C(=O)O [Phosphocitrate]	4.30		above 50 μM	4.36		
Polylysine	5.60				to the same extent as did uncoated crystals	effect on adhesion of COM crystals (BSC-1 cells [1]): no effect
